What was measured:
[1] = tested on: Pu22T14T23 (DNA, G4) TGAGGGTGGGTAGGGTGGGTAA; experiment: 1H NMR titration and NOESY; settings: 70 mM KCl
[2] = tested on: d(CGTACG)2 ("CG") (DNA, duplex) CGTACG; experiment: 1H and 31P NMR titration; settings: 0.1 M NaCl; 10 mM sodium phosphate pH 7.0, 15 °C; partial intercalation
[3] = tested on: d(AAGAATTCTT)2 ("AATT") (DNA, duplex) AAGAATTCTT; experiment: 1H and 31P NMR titration; settings: 0.1 M NaCl; 10 mM sodium phosphate pH 7.0, 15 °C; external interaction, no intercalation
[4] = tested on: d(TTAGGGT)4 (DNA, G4) TTAGGGT; experiment: 1H NMR titration and NOESY; settings: 150 mM KCl; 25 mM K-phosphate pH 6.7, 1 mM EDTA, 25 °C; sites A3-G4 and over G6
[5] = tested on: Pu22T14T23 (DNA, G4) TGAGGGTGGGTAGGGTGGGTAA; experiment: ligand fluorescence titration, EQUISPEC fit; settings: 3 µM ligand, 1:1 model
[6] = tested on: d(TTAGGGT)4 (DNA, G4) TTAGGGT; experiment: ligand fluorescence titration, EQUISPEC fit; settings: 3 µM ligand, 1:1 model
[7] = tested on: Pu22T14T23 (DNA, G4) TGAGGGTGGGTAGGGTGGGTAA; experiment: reverse fluorescence titration (DNA titrated with ligand), EQUISPEC fit; settings: 70 mM KCl; 25 mM phosphate pH 6.9, 20 °C; 2.4 µM DNA; overall constant of 1:2 model
[8] = 70 mM KCl, 25 mM phosphate pH 6.9, 20 °C

binding [2] | binding [3] | Kb [5, 8] | binding ([5]; PBS (Na+; composition not given), PBS, 20 °C, stated similar to K+ buffer) | Kb [6, 8] | Kb ([6]; PBS (Na+; composition not given), PBS, 20 °C, printed as d(TTAGGG)4) | overall Kb [7] | SMILES | binding ([1]; 25 mM KH2PO4 pH 6.9, 25 °C, no shift change, no NOE) | binding ([1]; 25 mM phosphate pH 6.9, 25 °C, stacks on 5' and 3' end tetrads) | binding [4]
 |  |  |  |  |  |  | C[C@]1(c2nc3c(C(N)=O)cccc3[nH]2)CCCN1 | no |  | 
weak | weak | ~ 10^6.1 M^-1 | yes | ~ 10^6.1 M^-1 | ~ 10^5.1 M^-1 | 10^12.8 M^-2 | NC(=O)Cn1ccc2ccc(-c3ccc(CN4CCCC4)cc3)nc21 |  | yes | yes
